Test results published in patent US20260355199A1, “COMPOSITIONS AND METHODS FOR TREATING OR PREVENTING NONALCOHOLIC STEATOHEPATITIS (NASH), ANOREXIA, DEPRESSION, ENDOMETRIOSIS, AND OTHER DISEASES OR DISORDERS” (priority 2022, published 2026).
Entries after “also recorded” stand apart in the source; their conditions may differ.

Experiments:
[1] = system: let-7a; assay: let-7a miRNA in endometriosis, NASH liver and lung tumor tissues; type: in vivo, mouse; conditions: lung cancer tissues
Protocol: For let-7a qPCR, 10 ng of total RNA was reverse transcribed to cDNA in a reaction volume of 10 μl using miRCURY LNA RT Kit (QIAGEN, 339340). Quantitative real-time PCR reactions were carried out using miRCURY LNA SYBR Green PCR Kit (QIAGEN, 339346) and a let-7a-specific primer (Has-Let-7a-5p miRCURY LNA miRNA PCR Assay, QIAGEN, 339306/YP00205727) in a Bio-Rad iCycler. Gene expression levels were normalized against U6 (U6 snRNA v2 miRURY LNA miRNA PCR Assay, QIAGEN, 339306/YPO2119464, QIAGEN).

[2] = system: TET3; assay: TET3 protein stability (cycloheximide time course) in GT1-7 cells; type: cell-based; conditions: 10 μM, with cycloheximide; mouse neuronal cells
Protocol: For Bobcat339 treatment (FIG. 15A and FIG. 15B), GT1-7 cells grown in 24-well plates at 2×10^5 cells/well were incubated with vehicle or Bobcat339 at a final concentration of 10 μM for 6 h, followed by RNA and protein extractions. For TET3 protein stability assay (FIG. 15B), GT1-7 cells in 24-well plates at 2×10^5 cells/well were incubated with vehicle or Bobcat339 at a final concentration of 10 μM for 3 hours, followed by addition of cycloheximide (CHX, Cell Signaling, 2112) at a final concentration of […] in the presence of 10 μM of Bobcat339. Proteins were harvested at 0, 1, 2, and 3 hours after addition of CHX. For TET3 expression restoration experiments (FIG. 15C and FIG. 15D), GT1-7 or SH-SY5Y cells seeded in 24-well plates at 2×10^5 cells/well were infected with Ad-GFP or Ad-TET3 at 4000 gc/cell. Following 16 h of infection, vehicle or Bobcat339 were added at a final concentration of 10 μM. Protein and RNA were isolated 48 h later and analyzed.

With `Nc1nc(=O)n(-c2cccc(-c3ccccc3)c2)cc1Cl` [Bobcat339, 4-Amino-1-[1,1′-biphenyl]-3-yl-5-chloro-2(1H)-pyrimidinone] the “let-7a miRNA levels in disease tissues” value [1] was “increased” and the TET3 protein stability [2] was “induced protein degradation of TET3; also recorded: less stable”.
